Reference: ChEMBL document CHEMBL5528023, “Discovery of a CB2 and 5-HT1A receptor dual agonist for the treatment of depression and anxiety” (Eur J Med Chem, 2024)
Values after ≈ are worked out from the molar mass of the structure shown.

Assays:
[1] = molecular target: T1, Cannabinoid receptor 1 (Homo sapiens, UniProt P21554); assay: Antagonist activity at human CB1 receptor expressed in CHO cells assessed as inhibition of forskolin-stimulated cAMP formation by measuring maximum inhibition preincubated with compound for 10 mins followed by forskolin induction and measured after 30 mins by HTRF analysis relative to control; format: functional, cell-based; conditions: filed as antagonist, time 40.0 min
T1 sequence (P21554 whole entry): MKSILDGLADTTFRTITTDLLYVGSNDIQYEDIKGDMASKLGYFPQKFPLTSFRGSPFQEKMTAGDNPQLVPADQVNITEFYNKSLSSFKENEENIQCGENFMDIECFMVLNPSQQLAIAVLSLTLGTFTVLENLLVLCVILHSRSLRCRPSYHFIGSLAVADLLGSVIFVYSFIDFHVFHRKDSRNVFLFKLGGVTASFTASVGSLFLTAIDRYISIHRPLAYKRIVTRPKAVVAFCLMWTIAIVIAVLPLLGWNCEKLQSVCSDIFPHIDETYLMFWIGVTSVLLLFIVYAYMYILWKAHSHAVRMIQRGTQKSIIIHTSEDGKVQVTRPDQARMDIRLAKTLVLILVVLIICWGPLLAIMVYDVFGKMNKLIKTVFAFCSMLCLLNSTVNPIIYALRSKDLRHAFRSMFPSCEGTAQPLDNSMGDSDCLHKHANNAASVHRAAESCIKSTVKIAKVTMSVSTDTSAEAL

[2] = molecular target: T2, Cannabinoid receptor 2 (Homo sapiens, UniProt P34972); assay: Agonist activity at human CB2 receptor expressed in CHO cells assessed as forskolin-stimulated cAMP formation preincubated with compound for 10 mins followed by forskolin induction and measured after 30 mins by HTRF analysis; format: functional, cell-based
T2 sequence (P34972 whole entry): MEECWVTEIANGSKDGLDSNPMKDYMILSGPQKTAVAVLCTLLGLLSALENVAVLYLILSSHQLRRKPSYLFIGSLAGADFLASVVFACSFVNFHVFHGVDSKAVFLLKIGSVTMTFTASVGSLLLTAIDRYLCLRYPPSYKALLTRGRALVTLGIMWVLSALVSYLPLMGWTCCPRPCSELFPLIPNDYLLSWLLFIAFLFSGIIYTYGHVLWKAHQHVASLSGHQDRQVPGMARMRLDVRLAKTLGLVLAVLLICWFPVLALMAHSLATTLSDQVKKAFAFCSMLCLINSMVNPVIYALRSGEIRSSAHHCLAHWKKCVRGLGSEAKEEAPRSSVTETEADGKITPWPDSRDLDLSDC

[3] = molecular target: T1, Cannabinoid receptor 1; assay: Antagonist activity at human CB1 receptor expressed in CHO cells assessed as inhibition of forskolin-stimulated cAMP formation preincubated with compound for 10 mins followed by forskolin induction and measured after 30 mins by HTRF analysis; format: functional, cell-based
[4] = Solubility of compound in phosphate buffer at pH 6.8 by HPLC analysis; format: physicochemical
[5] = molecular target: T2, Cannabinoid receptor 2; assay: Partial agonist activity at human CB2 receptor expressed in CHO cells assessed as forskolin-stimulated cAMP formation preincubated with compound for 10 mins followed by forskolin induction and measured after 30 mins by HTRF analysis relative to control; format: functional, cell-based; conditions: filed as partial agonist, time 40.0 min
[6] = Cmax in ICR mouse at 25 mg/kg, po measured upto 8 hrs by LC-MS/MS analysis; format: ADME, organism-based; conditions: in vivo
[7] = AUClast in ICR mouse at 25 mg/kg, po measured upto 8 hrs by LC-MS/MS analysis; format: ADME, organism-based; conditions: in vivo
[8] = molecular target: T2, Cannabinoid receptor 2; assay: Partial agonist activity at human CB2 receptor expressed in CHO cells assessed as forskolin-stimulated cAMP formation preincubated with compound for 10 mins followed by forskolin induction and measured after 30 mins by HTRF analysis; format: functional, cell-based
[9] = Tmax in ICR mouse at 25 mg/kg, po measured upto 8 hrs by LC-MS/MS analysis; format: ADME, organism-based; conditions: in vivo
[10] = Half life in ICR mouse at 25 mg/kg, po measured upto 8 hrs by LC-MS/MS analysis; format: ADME, organism-based; conditions: in vivo
[11] = system: Mus musculus; assay: Anxiolytic activity against stress-induced hyperthermia in ip dosed ICR mouse assessed as reduction in basal core rectal temperature measured for 60 mins; format: functional, organism-based; conditions: dose 3-10 mg/kg
[12] = system: Mus musculus; assay: Anxiolytic activity against stress-induced hyperthermia in ip dosed ICR mouse assessed as reduction in delta temperature measured for 60 mins; format: functional, organism-based; conditions: dose 1-10 mg/kg

SMILES: C=C(C)[C@@H]1CCC(C)=C[C@H]1c1c(O)cc(C(C)C)cc1O
- Imax [1]: 94%
- EC50 [2]: > 0.01 µM
- IC50 [3]: 0.018 µM

SMILES: C=C(C)[C@@H]1CCC(C)=C[C@H]1c1c(O)cc(CCCCC)c(C(=O)NC)c1O
- Imax [1]: 75.3%
- solubility [4]: 0.7 µg/mL (≈ 1.88 µM)
- EC50 [2]: > 0.01 µM
- IC50 [3]: 2.6 µM

SMILES: C=C(C)[C@@H]1CCC(C)=C[C@H]1c1c(O)cc(C2CCCCC2)cc1O
- Emax [5]: 62.7%
- Cmax [6]: 216 ng/mL
- AUC(0-t) at 8 h [7]: 616 ng·h/mL
- EC50 [8]: 0.0552 µM
- Tmax [9]: 0.8 h
- half-life [10]: 2.7 h

SMILES: C=C(C)[C@@H]1CCC(C)=C[C@H]1c1c(O)cc(-c2ccccc2)cc1O
- EC50 [2]: > 0.01 µM
- IC50 [3]: > 10 µM

SMILES: C=C(C)[C@@H]1CCC(C)=C[C@H]1c1c(O)cc(-c2ccccn2)cc1O
- Imax [1]: 92.1%
- EC50 [2]: > 0.01 µM
- IC50 [3]: 6.3 µM

SMILES: C=C(C)[C@@H]1CCC(C)=C[C@H]1c1c(O)cc(C)cc1O
- Imax [1]: 115%
- EC50 [2]: > 10 µM
- IC50 [3]: 6.3 µM

SMILES: C=C(C)[C@@H]1CCC(C)=C[C@H]1c1ccc(C2CC2)c(C(N)=O)c1O
- Imax [1]: 108%
- Emax [5]: 44.7%
- Cmax [6]: 90.4 ng/mL
- AUC(0-t) at 8 h [7]: 170 ng·h/mL
- EC50 [8]: 0.56 µM
- Tmax [9]: 0.4 h
- IC50 [3]: 6.5 µM
- half-life [10]: 2.9 h

SMILES: C=C(C)[C@@H]1CCC(C)=C[C@H]1c1c(O)cc(C(C)(C)CCCC)c(C(=O)NC)c1O
- Imax [1]: 104%
- EC50 [2]: > 10 µM
- IC50 [3]: 4.4 µM

SMILES: CN1C(=O)CN=C(c2ccccc2)c2cc(Cl)ccc21
- Activity [11]: Dose-Dependent Effect
- Activity [12]: Dose-Dependent Effect

SMILES: C=C(C)[C@@H]1CCC(C)=C[C@H]1c1c(O)cc(C2(CCCC)CC2)c(C(=O)NC)c1O
- Imax [1]: 91.1%
- EC50 [2]: > 10 µM
- IC50 [3]: 2.2 µM

SMILES: C=C(C)[C@@H]1CCC(C)=C[C@H]1c1c(O)cc(C(=O)CCCC)cc1O
- Imax [1]: 82.9%
- Emax [5]: 75.7%
- EC50 [8]: 4.69 µM
- IC50 [3]: 9.9 µM

SMILES: C=C(C)[C@@H]1CCC(C)=C[C@H]1c1c(O)cc(CCCCC)c(C(N)=O)c1O
- Imax [1]: 86.3%
- solubility [4]: 0.6 µg/mL (≈ 1.68 µM)
- EC50 [2]: > 0.01 µM
- IC50 [3]: 2.7 µM

SMILES: C=Cc1cc(O)c([C@@H]2C=C(C)CC[C@H]2C(=C)C)c(O)c1
- Imax [1]: 83.3%
- EC50 [2]: > 0.01 µM
- IC50 [3]: 6.4 µM
